One block for each molecule: values may come before it.
How the values were obtained:
[1] = Oral bioavailability in Sprague-Dawley rat at 10 mg/kg administered via gavage; format: ADME, organism-based; conditions: in vivo
Plasmodium berghei [2] = experiment: Antimalarial activity against Plasmodium berghei infected in mouse by Thompson test; format: functional
[3] = Half life in CD1 mouse at 2.5 mg/kg, iv; format: ADME, organism-based; conditions: in vivo
[4] = Oral bioavailability in CD1 mouse at 10 mg/kg; format: ADME, organism-based; conditions: in vivo
Plasmodium berghei [5] = experiment: Antimalarial activity against Plasmodium berghei infected in po dosed mouse measured after 3 doses by 4 day peter's test; format: functional; conditions: 96 h
Plasmodium berghei [6] = experiment: Antimalarial activity against Plasmodium berghei infected in mouse assessed as cure rate at 30 mg/kg, po relative to control; format: functional
Plasmodium berghei [7] = experiment: Antimalarial activity against GFP transfected Plasmodium berghei ANKA infected in NMRI mouse assessed as suppression of parasitemia at 100 mg/kg, po administered at 4, 24, 48, 72 hrs post infection measured at 96 hrs post infection by FACS analysis relative to control; format: functional
[8] = Oral bioavailability in C57BL/6 mouse at 100 mg/kg; format: ADME, organism-based; conditions: in vivo
Plasmodium berghei [9] = experiment: Antimalarial activity against GFP-fused Plasmodium berghei ANKA infected in NMRI mouse assessed as mouse survival at 100 mg/kg, po administered at 4, 24, 48, 72 hrs post infection; format: functional
[10] = Oral bioavailability in mouse at 15 mg/kg; format: ADME, organism-based; conditions: in vivo
Plasmodium berghei [11] = experiment: Antimalarial activity against GFP transfected Plasmodium berghei in ICR mouse engrafted with parasite infected erythrocytes assessed as reduction in parasitemia administered as po qd for 3 to 5 days post infection measured on day 3 to 30 by Giemsa staining-based microscopic method; format: functional
[12] = Oral bioavailability in beagle dog at 30 mg/kg; format: ADME, organism-based, Canis lupus familiaris; conditions: in vivo
[13] = Oral bioavailability in Sprague-Dawley rat at 20 +/- 0.2 mg/kg administered via gavage as solution; format: ADME, organism-based; conditions: in vivo
Plasmodium falciparum = experiment: Antimalarial activity against Plasmodium falciparum 3D7 0087/N9 in NODscid IL-2Rgammanull mouse engrafted with parasite infected human erythrocytes assessed as reduction in parasitemia administered via oral gavage starting from day 3 to day 6 post infection measured every 24 hrs during compound dosing by flow cytometric method; format: functional; conditions: 3D7 0087/N9, po
[14] = Oral bioavailability in Sprague-Dawley rat at 17 +/- 0.2 mg/kg administered via gavage as suspension; format: ADME, organism-based; conditions: in vivo
[15] = Oral bioavailability in beagle dog at 3 mg/kg; format: ADME, organism-based, Canis lupus familiaris; conditions: in vivo
[16] = tested on: acetylcholinesterase (AChE); experiment: Selectivity index, ratio of IC50 for human AchE to IC50 for Plasmodium falciparum NF54; format: toxicity; conditions: read-out: Ratio IC50
hERG = experiment: Selectivity index, ratio of IC50 for human ERG to IC50 for Plasmodium falciparum NF54; format: toxicity; conditions: read-out: Ratio IC50
[17] = Oral bioavailability in rat; format: ADME, organism-based; conditions: in vivo

bioavailability [1]: < 1%
Structure (SMILES): CC1(C)N=C(N)N=C(N)N1OCCCOc1cc(Cl)c(Cl)cc1Cl

Structure (SMILES): COc1cc2[nH]c(C)c(-c3ccc(Oc4ccc(OC(F)(F)F)cc4)cc3)c(=O)c2cc1Cl
ED50 (Plasmodium berghei [2]): 0.016 mg/kg

Structure (SMILES): COc1ccc(NC(=O)N2CCCCN3[C@H](CN(C)C)[C@H](c4ccc(C#Cc5ccccc5)cc4)[C@@H]3C2)cc1
half-life [3]: 32 h
bioavailability [4]: 80%

Structure (SMILES): FC1CCN(CCOc2ccc(C3CCC4(CC3)OOC3(OO4)C4CC5CC(C4)CC3C5)cc2)CC1 (centres undefined)
ED50 (Plasmodium berghei [5]): 4 mg/kg
Activity (Plasmodium berghei [6]): 66%

Structure (SMILES): COc1ccc2c(c1)CC[C@@H]1[C@@H]2CC[C@]2(C)[C@H](NCc3cc4ccccc4cc3O)CC[C@@H]12
Activity (Plasmodium berghei [7]): 99.8%
bioavailability [8]: < 5%
Survival (Plasmodium berghei [9]): 27 days

bioavailability [10]: > 30%
bioavailability [12]: > 30%
bioavailability [13]: > 30%
bioavailability [14]: > 30%
bioavailability [15]: > 30%
Structure (SMILES): N#Cc1cc(NC(=O)[C@H]2c3ccccc3C(=O)N(CC(F)(F)F)[C@@H]2c2cccnc2)ccc1F [SJ-733]
ED50 (Plasmodium berghei [11]): < 5 mg/kg
ED50 (Plasmodium falciparum): < 5 mg/kg

Structure (SMILES): Cc1nc(Nc2ncc(N3CCN(C)[C@H](C)C3)c(Nc3cc(C)n(C)n3)n2)cc(C2CC2)c1F [SUTIDIAZINE]
selectivity ratio [16]: > 1000
selectivity ratio (hERG): > 1000
bioavailability [17]: 80%
